Test [1] concerns human transformed keratinocytes (HaCat). The test can be described thus: cells. The settings on record: 72 h. As for the experimental part:
In a second cell reproduction test, human transformed keratinocytes (HaCat) are employed which are cultured in DMEM culture medium with an addition of 10% calf serum. Cells which have grown to confluence beforehand are isolated with trypsin and distributed in 6-well plates in a density of 40×10^3.
The test substance is added 24 h after distribution and after incubation for a further 72 h the cell count is determined using a Coulter counter. Controls are incubated without further additions or with the addition of the solubilizer polyethylene glycol 400 (0.05%).
Evaluation was made in each case for 6 wells/concentration.

The test system of a further test is human keratinocytes. The test can be described thus: cells. The settings on record: Keratinocyte, 264 h, read-out: average inhibitory concentration (IC50).
[2] abbreviates: read-out: % inhibition of growth.

Molecules are shown by their SMILES.

Experimental for human keratinocytes: To determine the action, firstly human keratinocytes from the preputial skin of neonates after the 1st passage are distributed in MCDB153 medium in 96-well microtiter plates (2×10^3 cells/well) and the compound given below is added in concentrations of from 10^-10 to 10^-5 M, blank controls containing only the solubilizer DMSO (1%). The period of incubation is 11 days, and after another 2 days in each case there is a change of medium followed by renewed addition of substance.
To determine the rate of cell reproduction, incubation is carried out for 1 h with 4-methylumbelliferyl heptanoate (MUH) according to the method described by R. Stadler et al., Journal of Investigative Dermatology 93, 532-534, 1989, after which the fluorescence intensity is measured using a Titertek Fluoroskan.
4 experiments were carried out, in each case with 4 wells/concentration.

As to `COC(=O)C1=C(C)NC(C)=C(C(=O)OCCCN2CCC(c3ccccc3)(c3ccccc3)CC2)C1c1cccc([N+](=O)[O-])c1` (single isomer, unassigned) [Compound 1, 3-methyl 5-[3-(4,4-diphenyl-1-piperidyl)propyl] (-)-1,4-dihydro-2,6-dimethyl-4-(3-nitrophenyl)pyridine-3,5-dicarboxylate], in test [1] (setting [2]), the inhibition at 1 µM was 60% and the inhibition at 10 µM was found to be 96%. The IC50 in test [1] (read-out: inhibitory concentration (IC50)) was 520 nM. In addition, the IC50 in the test on human keratinocytes was found to be 88 nM.

The values above are taken from patent US5470860A, “1,4-dihydropyridines for use in the treatment of dermatoses” (Byk Gulden Lomberg Chemische Fabrik GmbH, priority 1991, dated 1995).
